Activity calls are given as the source filed them. Cut-off read from the data, not from the text of the source, for most assays here: actives have a measured EC50 and inactives only a lower limit.
How the values were obtained:
[1] = target: T1, Heat shock factor protein 1 (Mus musculus, UniProt P38532); test: HSF1 potentiators in luciferase reporter cells, confirmation, cell-based, NIH3T3, luminescence, dose retest (AID 435004); type: functional;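 note: stress induced by proteasome inhibitor MG132 added 30 min after compound; luciferase reporter driven by HSF1 response element in NIH3T3 cells; actives raise luminescence as potentiators of the MG132 stress response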
T1 sequence (P38532 whole entry): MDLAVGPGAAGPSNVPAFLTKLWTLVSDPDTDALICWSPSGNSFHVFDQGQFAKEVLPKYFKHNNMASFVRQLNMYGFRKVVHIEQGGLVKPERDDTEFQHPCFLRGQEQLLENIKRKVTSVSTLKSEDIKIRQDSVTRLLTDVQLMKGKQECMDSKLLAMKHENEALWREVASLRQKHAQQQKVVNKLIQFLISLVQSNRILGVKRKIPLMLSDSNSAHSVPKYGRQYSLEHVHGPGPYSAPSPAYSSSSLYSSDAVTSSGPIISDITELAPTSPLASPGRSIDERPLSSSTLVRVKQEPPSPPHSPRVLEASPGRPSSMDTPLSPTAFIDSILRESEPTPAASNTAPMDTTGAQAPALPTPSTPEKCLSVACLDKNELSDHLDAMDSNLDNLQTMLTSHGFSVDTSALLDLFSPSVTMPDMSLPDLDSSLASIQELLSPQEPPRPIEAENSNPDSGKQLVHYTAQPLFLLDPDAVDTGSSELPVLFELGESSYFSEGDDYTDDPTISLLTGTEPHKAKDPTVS

H4 = test: Luminescence Cell-Based Dose Response HTS to Identify Activators of 5'UTR Stem-Loop Driven Prion Protein mRNA Translation in H4 Neuroglioblastoma Cells. [Related pubchem assays: 1829 (Project Summary), 1814 (Primary HTS)]; type: functional; details: Homo sapiens
[2] = Luminescence Cell-Based Dose Confirmation HTS to Identify Activators of 5'UTR Stem-Loop Driven Alpha-Synuclein mRNA Translation in H4 Neuroglioblastoma Cells. [Related pubchem assays: 1829 (Project Summary), 1814 (Primary HTS)]; type: functional
Vero = test: cells; type: functional; details: Chlorocebus sabaeus
[3] = Luminescence Cell-Based Dose Response HTS to Identify Activators of Luciferase Translation or Activity in H4 […] Cells. [Related pubchem assays: 1829 (Project Summary), 1814 (Primary HTS)]; type: functional
BJ [4] = test: cytotoxicity toward BJ-TERT fibroblasts, dose response, cell-based, RAS-independent, luminescence (AID 1933); type: functional; details: Homo sapiens
BJ [5] = test: cytotoxicity toward BJ-TERT-LT-ST fibroblasts, dose response, cell-based, RAS-independent, luminescence (AID 1935); type: functional; details: Homo sapiens;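 note: BJ fibroblasts immortalized with TERT plus LT and ST oncogenes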
[6] = cytotoxicity toward DRD oncogenic fibroblasts, dose response, cell-based, non-viral oncogenic, luminescence (AID 1934); type: functional; details: Homo sapiens
BJ [7] = test: cells; type: functional, cell-based; details: Homo sapiens
[8] = cytotoxicity toward NIH3T3 fibroblasts, dose response, counter-screen, cell-based, ATP luminescence, mouse fibroblasts (AID 2010); type: functional;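 note: cells exposed to compound for about 90 hours before reading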
[9] = inhibitors of intracellular T. cruzi replication, confirmation, NIH3T3 host cells, beta-gal luminescence (AID 2044); type: functional, cell-based;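 note: intracellular parasites grown in NIH/3T3 mouse fibroblasts as host cells; luminescent beta-galactosidase reporter signal from transgenic T. cruzi replicating inside host cells; inhibitors lower the luminescence signal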
Streptokinase A = target: T2, Streptokinase A (Streptococcus pyogenes serotype M1, UniProt P10520); test: S. pyogenes streptokinase expression inhibitors, potency, dose response, plasminogen activation absorbance, OD405 (AID 1914); type: functional, Streptococcus pyogenes M1 GAS;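 note: secreted streptokinase activity via plasminogen activation per viability signal from cell pellet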
T2 sequence (P10520 whole entry): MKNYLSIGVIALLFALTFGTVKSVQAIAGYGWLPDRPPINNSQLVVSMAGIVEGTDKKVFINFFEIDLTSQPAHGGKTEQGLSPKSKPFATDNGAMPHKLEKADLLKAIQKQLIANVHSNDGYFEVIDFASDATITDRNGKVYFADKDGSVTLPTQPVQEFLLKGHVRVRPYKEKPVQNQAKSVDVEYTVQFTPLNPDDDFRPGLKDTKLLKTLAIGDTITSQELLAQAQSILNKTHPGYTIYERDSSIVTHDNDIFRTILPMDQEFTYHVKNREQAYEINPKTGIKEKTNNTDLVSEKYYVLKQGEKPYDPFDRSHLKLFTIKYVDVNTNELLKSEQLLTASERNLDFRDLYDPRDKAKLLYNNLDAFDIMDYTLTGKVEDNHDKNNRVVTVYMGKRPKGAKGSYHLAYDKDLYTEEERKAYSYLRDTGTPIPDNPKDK

[10] = tested on: Streptococcus sp. 'group A'; test: growth inhibition of control SK(-) GAS strain, dose response, counter-screen for streptokinase expression inhibitor project, luminescence, kanamycin, BacTiterGlo, confirmation (AID 1900); type: functional, organism-based
Streptococcus = test: Group A Streptococcus viability loss, dose response, counter-screen for streptokinase expression inhibitor project, luminescence, BacTiterGlo (AID 1915); type: functional, organism-based;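 note: potency for reduction of bacterial viability or growth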
[11] = target: T3, Polyadenylate-binding protein 1 (Homo sapiens, UniProt P11940); test: PABP1 MLLE–PAM2 binding inhibitor potency, dose response, biochemical, fluorescence polarization, FITC-PAM2 peptide (AID 602259); type: functional; details: read-out: IC50_Mean
[12] = target: T3, Polyadenylate-binding protein 1; test: PABP1 MLLE–PAM2 interaction inhibitors, dose response, miRNA deadenylation inhibitor project, biochemical, fluorescence polarization, Cy5-PAM2 peptide, secondary (AID 602260); type: functional; details: read-out: IC50_Mean
[13] = target: Luciferin 4-monooxygenase (Photinus pyralis, UniProt P08659); test: firefly luciferase enzyme inhibitors, dose response, biochemical, luminescence (AID 1891)
[14] = Luminescence Cell-Based Dose Confirmation HTS to Identify Inhibitors of Platelet Dense Granule Release. [Related pubchem assays: 1663 (Primary HTS), 1678 (Summary of Project)]; type: functional
[15] = Luminescence Cell-Based Dose Response HTS to Identify Inhibitors of 5'UTR Stem-Loop Driven Prion Protein mRNA Translation in H4 Neuroglioblastoma Cells. [Related pubchem assays: 1827 (Project Summary), 1813 (Primary HTS)]; type: functional
[16] = inhibitors of SNCA 5'UTR-driven reporter translation, confirmation, H4 neuroglioma cells, luminescence (AID 1988); type: functional, cell-based
[17] = NIH-3T3 fibroblast cytotoxicity, dose response, cytotoxicity control, cell-based, fluorescence, Alamar Blue, secondary assay (AID 2327); type: functional;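 note: NIH-3T3 mouse fibroblasts cultured with fluconazole at 8 µg/mL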
[18] = C. albicans growth with fluconazole, confirmation, fluorescence, retest (AID 2467); type: functional, cell-based
[19] = inhibitors of firefly luciferase expression or activity, dose response, H4 neuroglioma cells, luminescence (AID 1990); type: functional, cell-based
[20] = target: Induced myeloid leukemia cell differentiation protein Mcl-1 (Homo sapiens, UniProt Q07820); type: functional
Induced myeloid leukemia cell differentiation protein Mcl-1, sequence (Q07820 whole entry): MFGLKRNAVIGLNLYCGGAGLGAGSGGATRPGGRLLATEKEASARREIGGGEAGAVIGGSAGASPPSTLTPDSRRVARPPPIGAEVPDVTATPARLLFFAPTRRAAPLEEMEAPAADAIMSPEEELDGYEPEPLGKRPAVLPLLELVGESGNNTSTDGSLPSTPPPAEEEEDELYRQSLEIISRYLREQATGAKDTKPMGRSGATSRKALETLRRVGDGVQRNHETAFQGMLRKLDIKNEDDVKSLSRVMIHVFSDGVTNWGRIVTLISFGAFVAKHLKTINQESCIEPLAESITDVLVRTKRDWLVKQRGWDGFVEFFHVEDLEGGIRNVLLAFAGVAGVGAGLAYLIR

Luciferin 4-monooxygenase, sequence (P08659 whole entry): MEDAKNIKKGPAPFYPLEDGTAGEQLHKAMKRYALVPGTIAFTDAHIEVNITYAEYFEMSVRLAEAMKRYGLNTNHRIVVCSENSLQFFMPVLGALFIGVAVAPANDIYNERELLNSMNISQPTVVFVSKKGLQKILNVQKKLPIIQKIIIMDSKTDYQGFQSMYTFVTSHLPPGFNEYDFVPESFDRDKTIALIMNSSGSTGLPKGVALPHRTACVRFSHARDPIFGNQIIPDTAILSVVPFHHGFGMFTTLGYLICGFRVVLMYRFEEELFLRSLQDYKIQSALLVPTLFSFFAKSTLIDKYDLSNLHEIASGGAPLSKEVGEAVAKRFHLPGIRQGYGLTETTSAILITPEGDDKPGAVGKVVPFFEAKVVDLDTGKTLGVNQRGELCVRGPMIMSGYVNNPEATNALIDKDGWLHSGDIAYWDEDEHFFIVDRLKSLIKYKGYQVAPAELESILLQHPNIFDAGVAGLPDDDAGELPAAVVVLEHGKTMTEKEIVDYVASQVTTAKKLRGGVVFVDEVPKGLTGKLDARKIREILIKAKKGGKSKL
T3 sequence (P11940 whole entry): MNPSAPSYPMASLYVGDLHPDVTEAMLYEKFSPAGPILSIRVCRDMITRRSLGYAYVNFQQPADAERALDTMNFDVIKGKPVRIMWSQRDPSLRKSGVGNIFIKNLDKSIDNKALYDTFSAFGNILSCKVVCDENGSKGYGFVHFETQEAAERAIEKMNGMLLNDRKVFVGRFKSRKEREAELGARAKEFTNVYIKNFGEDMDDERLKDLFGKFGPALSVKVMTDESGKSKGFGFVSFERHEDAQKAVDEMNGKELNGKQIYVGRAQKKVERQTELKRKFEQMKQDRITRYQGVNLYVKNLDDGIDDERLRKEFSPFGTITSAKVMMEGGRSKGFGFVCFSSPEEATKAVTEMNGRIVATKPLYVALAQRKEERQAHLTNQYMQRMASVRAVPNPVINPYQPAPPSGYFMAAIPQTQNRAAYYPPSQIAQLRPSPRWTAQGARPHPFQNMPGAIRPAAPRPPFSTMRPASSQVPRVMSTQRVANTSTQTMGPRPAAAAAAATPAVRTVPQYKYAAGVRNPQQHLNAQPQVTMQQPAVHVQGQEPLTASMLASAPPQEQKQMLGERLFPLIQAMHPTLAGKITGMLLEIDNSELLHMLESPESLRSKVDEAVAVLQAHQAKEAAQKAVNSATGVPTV

## CCOC(=S)SCC(=O)N1CCc2cc(OC)c(OC)cc2C1C1C(=O)CC(C)(C)CC1=O (stereo not drawn)
[1]
  EC50: > 260 µM (inactive)

## COc1ccc2o/c(=N\O)c(C(=O)Nc3ccc(C)cc3)cc2c1
H4
  EC50: 15.2 µM (active)
[2]
  EC50: 16.6 µM (active)
Vero
  CC50: > 25 µM (active)
[3]
  EC50: 14.1 µM (active)

## CCCCOc1ccc(NC(=O)C(=O)NCCC2=CCCCC2)cc1
BJ [4]
  EC50: > 150 µM (not active)
BJ [5]
  EC50: > 150 µM (inconclusive)
[6]
  EC50: 142 µM (active)
BJ [7]
  EC50: > 150 µM (not active)

## Cc1cc2oc(=O)cc(CNc3ccccc3F)c2cc1O
[8]
  EC50: > 60 µM (not active)
[9]
  EC50: 1.81 µM (active)
Streptokinase A
  EC50: 51.2 µM (active)
[10]
  EC50: 9.59 µM (active)
Streptococcus
  EC50: > 150 µM (not active)

## CC(C)OC(=O)c1c2nc3ccccc3nc2n2c1nc(O)c1ccccc12
Streptokinase A
  EC50: > 150 µM (not active)
[10]
  EC50: 1.24 µM (active)
Streptococcus
  EC50: 39.6 µM (active)

## CCn1cc(/C=N\NC(=O)c2ccc3c(c2)c(C)c(C)n3Cc2ccccc2)c(C)n1
BJ [4]
  EC50: > 150 µM (not active)
BJ [5]
  EC50: > 150 µM (not active)
[6]
  EC50: > 150 µM (not active)
BJ [7]
  EC50: > 150 µM (not active)

## Cc1ccc(C(=O)CNc2cccc([N+](=O)[O-])c2)cc1
[11]
  IC50: > 66 µM (inactive)
[12]
  IC50: > 66 µM (inactive)

## N#CC1=C(N)Oc2cc(N)ccc2C1c1cccc(F)c1 (stereo not drawn)
BJ [4]
  EC50: 10.8 µM (active)
BJ [5]
  EC50: 14.2 µM (inconclusive)
[6]
  EC50: 16.5 µM (active)
BJ [7]
  EC50: 34 µM (active)

## CN(C)CCOC1(Cc2ccc(F)cc2)CCC(C(C)(C)C)CC1 (stereo not drawn)
Vero
  CC50: > 25 µM (active)

## Cn1c(=O)c2c(nc(SCCN3CCOCC3)n2Cc2ccccc2Cl)n(C)c1=O
[13]
  EC50: > 112 µM (not active)
[14]
  EC50: > 112 µM (not active)

## COc1ccc(/N=C2/C(=N\c3ccc(OC)cc3)N(c3ccc(OC)cc3)C(=S)N2C(=O)c2ccc(OC)cc2)cc1
[1]
  EC50: > 260 µM (inactive)

## COc1ccc(C=C2c3ccccc3C(=O)c3ccccc32)c(OC)c1
BJ [4]
  EC50: 2.8 µM (inconclusive)
BJ [5]
  EC50: 18.3 µM (inconclusive)
[6]
  EC50: 2.6 µM (active)
BJ [7]
  EC50: 2.33 µM (inconclusive)
Vero
  CC50: < 0.05 µM (active)

## O=C(Nc1ccc(OCc2ccccc2Cl)cc1)c1cccnc1
[15]
  EC50: 0.909 µM (active)
[16]
  EC50: 0.485 µM (active)
[17]
  EC50: > 150 µM (inactive)
[18]
  EC50: > 38 µM (not active)
[19]
  EC50: 3.07 µM (active)

## CCC(C)NCCCOc1c(C)cc(C)cc1Br (stereo not drawn)
[20]
  IC50: 6.63 µM (not active)

## COC(=O)c1ccc(Cl)c(NC(=O)CSc2nnc(-c3ccncc3)o2)c1
Streptokinase A
  EC50: > 150 µM (not active)
[10]
  EC50: > 150 µM (not active)
Streptococcus
  EC50: > 150 µM (not active)

## COC(=O)c1cn(NC(=O)C2CCC(C)CC2)c(=O)c2ccccc12 (stereo not drawn)
[1]
  EC50: > 260 µM (inactive)

## COCC(C)n1c(C)cc(C(=O)CN2C(=O)NC(Cc3c[nH]c4ccccc34)C2=O)c1C (stereo not drawn)
[13]
  EC50: > 112 µM (not active)
[14]
  EC50: > 112 µM (not active)

Source: ChEMBL document CHEMBL1201862, “PubChem BioAssay data set” (2004)
